Literature values, collected in patent publication US4652627A, “Calcitonin analogs with C-terminal D-amino acid substituents” (priority 1985, dated 1987).
Positions of bridges follow the written chain, without caps; N, C: chain ends. No end group written: not given here.

Details: relative to human calcitonin = 100%

For “deletion of the entire prolinamide moiety: human calcitonin with the entire C-terminal prolinamide moiety deleted (CGNLSTCMLGTYTQDFNKFHTFPQTAIGVGA; ends and bridges not checked; cysteine pairing not given here; UniProt P01258 85-115, looked up, fragment)”, the activity is given as 0.12%.

In the case of “human calcitonin (CGNLSTCMLGTYTQDFNKFHTFPQTAIGVGAP-NH2; disulfide 1-7; ends not checked; UniProt P01258 85-116, looked up) [natural 32 amino acid calcitonin of human origin with C-terminal prolinamide]”, the activity is given as 100%.
